For 49 compounds, glass transition temperature results are on record in the PolyMetriX glass transition set.

Take `*/C(Cl)=C(/*)CCCC` (repeat unit): the glass transition temperature came to 190.00 °C.
Take `*C(CC(C)C)C(=O)Nc1ccc(Oc2ccc(NC(=O)NCC3(C)CC(NC(=O)Nc4ccc(Oc5ccc(NC(=O)C(CC(C)C)n6c(=O)c7cc8c(=O)n(*)c(=O)c8cc7c6=O)cc5)cc4)CC(C)(C)C3)cc2)cc1` (repeat unit): the glass transition temperature amounted to 147.50 °C.
`*CCC(=O)Nc1ccc(Cc2ccc(NC(=O)CCN3C(=O)c4ccc(C(=O)c5ccc6c(c5)C(=O)N(*)C6=O)cc4C3=O)cc2)cc1` (repeat unit) had a glass transition temperature of 221.00 °C.
Then `*CCC(=O)Nc1ccc(Oc2ccc(Oc3ccc(NC(=O)CCN4C(=O)c5ccc(C(=O)c6ccc7c(c6)C(=O)N(*)C7=O)cc5C4=O)cc3)cc2)cc1` (repeat unit), with 221.00 °C.
Then `*CCC(C)C(C)CCNC(=O)c1cccc(C(=O)N*)c1` (repeat unit), with 125.00 °C.
`*CCCC(=O)Nc1ccc(NC(=O)CCCN2C(=O)c3ccc(C(=O)c4ccc5c(c4)C(=O)N(*)C5=O)cc3C2=O)cc1` (repeat unit) displayed a glass transition temperature of 209.00 °C.
Compound `*CCCC(=O)Nc1ccc(Oc2ccc(NC(=O)CCCN3C(=O)c4ccc(C(=O)c5ccc6c(c5)C(=O)N(*)C6=O)cc4C3=O)cc2)cc1` (repeat unit) showed a glass transition temperature of 198.00 °C.
Turning to `*CCCC(=O)Nc1ccc(Oc2ccc(Oc3ccc(NC(=O)CCCN4C(=O)c5ccc(C(=O)c6ccc7c(c6)C(=O)N(*)C7=O)cc5C4=O)cc3)cc2)cc1` (repeat unit), the glass transition temperature was 178.00 °C.
As for `*CCCC(C)(C)CNC(=O)C(=O)N*` (repeat unit), the figure is 109.00 °C; as for `*CCCC(C)(C)CNC(=O)CCCC(=O)N*` (repeat unit), 82.00 °C; as for `*CCCC(C)(C)CNC(=O)CCCCC(=O)N*` (repeat unit), 77.00 °C.
In the case of `*CCCC(C)(C)CNC(=O)c1ccc(C(=O)N*)cc1` (repeat unit), the glass transition temperature stood at 157.00 °C.
Then `*CCCC(C)CNC(=O)c1ccc(C(=O)N*)cc1` (repeat unit), with 153.00 °C.
As for `*CCCC(CCNC(=O)c1ccc(C(=O)N*)cc1)C(C)C` (repeat unit), the figure is 150.00 °C; as for `*CCCCCOCO*` (repeat unit), -80.00 °C; as for `*CCCCCSS*` (repeat unit), -72.00 °C.
As for `*CCCNC(=O)CCCCC(=O)NCCCN(*)C` (repeat unit), the glass transition temperature came to 5.00 °C.
Consider `*CCCP(C)(=O)CCCNC(=O)CCCCC(=O)N*` (repeat unit), for which the glass transition temperature was determined as 33.00 °C.
Then `*CCC[Si](*)(C)C` (repeat unit), with -55.00 °C; and `*CCC[Si](*)(C)O[Si](C)(C)CCCOc1ccc(-c2ccc(C#N)cc2)cc1` (repeat unit), with -4.60 °C; and `*CCC[Si](*)(C)O[Si](C)(C)CCCOc1ccc(C#N)cc1` (repeat unit), with -45.50 °C.
In turn, `*CCC[Si](*)(C)O[Si](C)(C)CCCOc1ccc(C(=O)Oc2ccc(-c3ccc(C#N)cc3)cc2)cc1` (repeat unit) displayed a glass transition temperature of 10.10 °C.
As to `*CCC[Si](*)(C)c1ccc(N(C)C)cc1` (repeat unit), the glass transition temperature was 6.50 °C.
Then `*CCC[Si](*)(C[Si](C)(C)c1ccccc1)C[Si](C)(C)c1ccccc1` (repeat unit), with -36.00 °C.
`*CCC[Si](*)(c1ccc(C)cc1)c1ccc(C)cc1` (repeat unit) returned a glass transition temperature of 38.00 °C.
On to `*CCC[Si](C)(C)O[Si](C)(C)CCCN1C(=O)c2ccc(C(=O)c3ccc4c(c3)C(=O)N(*)C4=O)cc2C1=O` (repeat unit), for which the glass transition temperature was 68.00 °C.
As for `*CC[CH2][Sn]([CH3])([CH3])[CH2]CCOC(=O)C(CCCCCCCCOc1ccc(-c2ccc(OCc3ccc(C#N)cc3)cc2)cc1)C(=O)O*` (repeat unit), the figure is 22.00 °C; as for `*CCN(*)C(=O)CC` (repeat unit), 60.00 °C.
As for `*CCN(*)C(=O)CC(C)C` (repeat unit), the figure is 30.00 °C.
As for `*CCN(*)C(=O)CC12CC3CC(CC(C3)C1)C2` (repeat unit), the figure is 139.00 °C.
As to `*CCN(*)C(=O)CCC(=O)OC` (repeat unit), the glass transition temperature was found to be 31.00 °C.
The compound `*CCN(*)C(=O)CCCCCC` (repeat unit) gave a glass transition temperature of 10.00 °C.
Take `*CCN(*)C(=O)CCCCCCCCCCC` (repeat unit): the glass transition temperature was found to be 10.00 °C.
As for `*CCN(*)C(=O)CSC` (repeat unit), the figure is 39.00 °C; as for `*CCN(*)C(=O)Cc1ccc(C(F)(F)F)cc1` (repeat unit), 75.00 °C; as for `*CCN(*)C(=O)c1c(F)ccc(F)c1F` (repeat unit), 124.00 °C.
Then `*CCN(*)C(=O)c1cc(F)cc(F)c1` (repeat unit), with 106.00 °C.
Then `*CCN(*)C(=O)c1cc(F)ccc1F` (repeat unit), with 112.00 °C.
The compound `*CCN(*)C(=O)c1ccc(F)c(F)c1` (repeat unit) showed a glass transition temperature of 101.00 °C.
Then `*CCN(*)C(=O)c1ccc(SC(F)(F)F)cc1` (repeat unit), with 100.00 °C; and `*CCN(*)C(=O)c1ccc2ccccc2c1` (repeat unit), with 130.00 °C; and `*CCN(*)C(C)=O` (repeat unit), with 80.00 °C.
For the compound `*CCN(CCN1C(=O)c2ccc(C(c3ccc4c(c3)C(=O)N(*)C4=O)(C(F)(F)F)C(F)(F)F)cc2C1=O)c1ccc(/C=C/C2=CC(=C(C#N)C#N)CC(C)(C)C2)cc1` (repeat unit), the glass transition temperature turned out to be 224.00 °C.
As for `*CCN(CCN1C(=O)c2ccc(C(c3ccc4c(c3)C(=O)N(*)C4=O)(C(F)(F)F)C(F)(F)F)cc2C1=O)c1ccc(/N=N/c2ccc([N+](=O)[O-])cc2C)cc1` (repeat unit), the figure is 205.00 °C; as for `*CCN(CCOC(=O)Nc1ccc(C)c(NC(=O)O*)c1)c1ccc(/N=N/c2ccc(/C=C/c3nc4ccc([N+](=O)[O-])cc4n3CC)cc2)cc1` (repeat unit), 171.00 °C; as for `*Oc1ccc(NC(=O)c2cc(C(=O)Nc3ccc(Oc4ccc(C(C)(C)c5ccc(*)cc5)cc4)cc3)cc(C(C)(C)C)c2)cc1` (repeat unit), 244.00 °C.
Consider `*Oc1ccc(NC(=O)c2cc(C(=O)Nc3ccc(Oc4ccc(C(c5ccc(*)cc5)(C(F)(F)F)C(F)(F)F)cc4)cc3)cc(C(C)(C)C)c2)cc1` (repeat unit), for which the glass transition temperature turned out to be 255.50 °C.
Then `*Oc1ccc(NC(=O)c2cc(NC(=O)c3ccc(OC(C)=O)cc3)cc(C(=O)Nc3ccc(Oc4ccc(C(C)(C)c5ccc(*)cc5)cc4)cc3)c2)cc1` (repeat unit), with 243.00 °C.
In the case of `*c1ccc2c(c1)C(=O)N(c1ccc(N(C)CCN(C)c3ccc(N4C(=O)c5ccc(C(*)(C(F)(F)F)C(F)(F)F)cc5C4=O)cc3)cc1)C2=O` (repeat unit), the glass transition temperature turned out to be 227.00 °C.
